Data: US12421254B2, “KRAS modulators and uses thereof” (Quanta Therapeutics, Inc., priority 2023, dated 2025)
pIC50: −log10 of the molar value. Like-named read-outs stand apart in the source and are kept apart here.

What was measured:
[1] = target: GST-tagged KRAS-G12V (2-169) (Homo sapiens, UniProt P01116, G12V); assay: Nucleotide exchange assay (NEA), SOS-mediated, HTRF, KRAS G12V; type: biochemical; details: Table 4; IC50 extracted at 90 min; 80 nM SOS
Source text: (§1) This activity is tightly regulated by GTPase activating proteins (GAPs) and guanine nucleotide exchange factors (GEFs). GEFs, such as SOS1/2, activate Ras proteins by exchanging GDP for GTP, thus returning Ras to its active conformation (Simanshu, Nissley, & McCormick, 2017). […] Homogenous time resolved fluorescence (HTRF) was used to detect SOS-mediated binding of a fluorescent GTP analog, GTP-DY-647P1 (Jena Biosciences NU-820-647P1) to GST-tagged KRAS-G12D (2-169) or to GST-tagged KRAS-G12V (2-169, Reaction Biology, MSC-11-540).
(§2) GST-tagged KRAS-G12D (2-169) and anti-GST MAb Tb Cryptate Gold (CisBio 61GSTTLB) were diluted into assay buffer (20 mM HEPES, pH 7.3, 150 mM NaCl, 5 mM MgCl2, 0.05% BSA 0.0025% NP40, 1 mM DTT) to prepare a 2.5× donor solution. 5× compound was added to the protein mixture and incubated for 1 h at RT. 2.5× acceptor solution containing SOS1cat (564-1049, Reaction Biology MSC-11-502) and GTP-DY-647P1 were then added to the donor KRAS mixture such that the final concentration of the reaction contained 0.25 nM GST-tagged KRAS-G12D (2-169), 20 nM SOScat, and 150 nM GTP-DY-647P1. The reaction was monitored using at RT with the Envision multimode plate reader (Ex/Em 337/665, […]) up to 90 minutes at 5 minute intervals. To monitor KRAS-G12V SOS-mediated nucleotide exchange, 80 nM SOS was added to reaction instead of 20 nM. All other components were the same as previously described. Data was blanked to reactions without SOS1 and % inhibition was calculated such that DMSO only =0% and blank=100%. Curve fitting was done using a 4 parameter fit. Reported IC50 values were extracted at 30 min and 90 min for the KRAS-G12D and KRAS-G12V assays, respectively.

[2] = target: GST-tagged KRAS-G12D (2-169) (Homo sapiens, UniProt P01116, G12D); assay: Nucleotide exchange assay (NEA), SOS-mediated, HTRF, KRAS G12D; type: biochemical; details: IC50 extracted at 30 min, 20 nM SOScat; for pIC50: Table 4, read-out: NEA G12D IC50
Chain of GST-tagged KRAS-G12D (2-169) (P01116 2-169 isoform P01116-2 G12D): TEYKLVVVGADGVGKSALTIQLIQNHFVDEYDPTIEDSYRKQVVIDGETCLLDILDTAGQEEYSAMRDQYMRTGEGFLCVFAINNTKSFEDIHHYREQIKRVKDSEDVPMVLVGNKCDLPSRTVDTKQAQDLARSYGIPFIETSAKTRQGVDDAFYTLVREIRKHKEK
Source text: as §1, §2
NEA KRAS G12D IC50 (uM) values of selected compounds are depicted in Table 2 with compounds having a value <0.01 uM as ++++; ≥0.01 uM to 0.1 uM as +++; ≥0.1 uM to 1 uM as ++; ≥1 uM to 20 uM as +; and ≥20 uM as NA.

Chain of GST-tagged KRAS-G12V (2-169) (P01116 2-169 isoform P01116-2 G12V): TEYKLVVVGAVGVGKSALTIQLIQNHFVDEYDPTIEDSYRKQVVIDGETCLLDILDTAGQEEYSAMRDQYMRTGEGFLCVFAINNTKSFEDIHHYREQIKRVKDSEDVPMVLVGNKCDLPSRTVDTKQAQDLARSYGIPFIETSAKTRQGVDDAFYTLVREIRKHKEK

Row | Compound | pIC50 [1] | pIC50 [2] | IC50 ([2]; Table 2, read-out: NEA-G12D (uM) IC50)
1 | CN(C)CC1(COc2nc(N3CCOCC(C)(O)C3)nc(N3CC4(C3)SCc3sc(N)c(C#N)c34)n2)CC1(F)F (stereo not shown) [Compound 281, 2-amino-1′-[4-[[1-[(dimethylamino)methyl]-2,2-difluoro-cyclopropyl]methoxy]-6-(6-hydroxy-6-methyl-1,4-oxazepan-4-yl)-1,3,5-triazin-2-yl]spiro[6H-thieno[3,4-b]thiophene-4,3′-azetidine]-3-carbonitrile] | > 8.00 | > 8.00 | –
2 | N#Cc1c(N)sc2c1C1(CN(c3nc(OCC45CCCN4CC(F)C5)nc(N4C5CCC4C(O)C5)n3)C1)SC2 (mixture of isomers) [Compound 282, 2-amino-1′-[4-[[(2R,8S)-2-fluoro-1,2,3,5,6,7-hexahydropyrrolizin-8-yl]methoxy]-6-[(1RS,2SR,4SR)-2-hydroxy-7-azabicyclo[2.2.1]heptan-7-yl]-1,3,5-triazin-2-yl]spiro[6H-thieno[3,4-b]thiophene-4,3′-azetidine]-3-carbonitrile] | 7.00 to 8.00 | 6.00 to 7.00 | –
3 | CN(c1nc(OCC2(CN3CCOCC3)CC2)nc(N2CC3(CCc4sc(N)c(C#N)c43)C2)n1)[C@@H]1COC[C@@H]1O (racemic) [Compound 94, 2-amino-1′-[4-[[rac-(3R,4R)-4-hydroxytetrahydrofuran-3-yl]-methyl-amino]-6-[[1-(morpholinomethyl)cyclopropyl]methoxy]-1,3,5-triazin-2-yl]spiro[5,6-dihydrocyclopenta[b]thiophene-4,3′-azetidine]-3-carbonitrile] | 6.00 to 7.00 | 4.70 to 6.00 | –
4 | N#Cc1c(N)sc2c1C1(CCC2)CN(c2nc(OCC3(CN4CCOCC4)CC3)nc(N3CCC[C@]4(C3)NC(=O)NC4=O)n2)C1 [Compound 6, 2-amino-1′-[4-[[1-(morpholinomethyl)cyclopropyl]methoxy]-6-[(5R)-2,4-dioxo-1,3,9-triazaspiro[4.5]decan-9-yl]-1,3,5-triazin-2-yl]spiro[6,7-dihydro-5H-benzothiophene-4,3′-azetidine]-3-carbonitrile] | – | – | 0.01 to 0.1 µM
5 | CC(c1ccc[n+]([O-])c1)N(C)c1nc(OC[C@@]23CCCN2C[C@H](F)C3)nc(N2CC3(C2)SCc2sc(N)c(C#N)c23)n1 (stereo partly drawn) [Compound 224, 3-(1-((4-(2′-amino-3′-cyano-6′H-spiro[azetidine-3,4′-thieno[3,4-b]thiophen]-1-yl)-6-(((2R,7aS)-2-fluorotetrahydro-1H-pyrrolizin-7a(5H)-yl)methoxy)-1,3,5-triazin-2-yl)(methyl)amino)ethyl)pyridine 1-oxide] | 7.00 to 8.00 | 7.00 to 8.00 | –
6 | CC(=O)CC(=O)N1[C@@H]2CC[C@H]1CN(c1nc(OC[C@@]34CCCN3C[C@H](F)C4)nc(N3CC4(C3)SCc3sc(N)c(C#N)c34)n1)C2 [Compound 145, 2-amino-1′-[4-[[(2R,8S)-2-fluoro-1,2,3,5,6,7-hexahydropyrrolizin-8-yl]methoxy]-6-[(1R,5S)-8-(3-oxobutanoyl)-3,8-diazabicyclo[3.2.1]octan-3-yl]-1,3,5-triazin-2-yl]spiro[6H-thieno[3,4-b]thiophene-4,3′-azetidine]-3-carbonitrile] | 6.00 to 7.00 | 4.70 to 6.00 | –
7 | CCN(c1nc(OCC2(COC)CCCC2)nc(N2CC3(C2)SCc2sc(N)c(C#N)c23)n1)[C@H](C)c1cccnc1N [Compound 222, 2-amino-1′-[4-[[(1R)-1-(2-amino-3-pyridyl)ethyl]-ethyl-amino]-6-[[1-(methoxymethyl)cyclopentyl]methoxy]-1,3,5-triazin-2-yl]spiro[6H-thieno[3,4-b]thiophene-4,3′-azetidine]-3-carbonitrile] | 6.00 to 7.00 | 4.70 to 6.00 | –
8 | CC1(O)COCCN(c2nc(OC[C@@]34CCCN3C[C@H](F)C4)nc(N3CC4(C3)SCc3sc(N)c(C#N)c34)n2)C1 (stereo partly drawn) [Compound 268, 2-amino-1′-[4-[[(2R,8S)-2-fluoro-1,2,3,5,6,7-hexahydropyrrolizin-8-yl]methoxy]-6-(6-hydroxy-6-methyl-1,4-oxazepan-4-yl)-1,3,5-triazin-2-yl]spiro[6H-thieno[3,4-b]thiophene-4,3′-azetidine]-3-carbonitrile] | > 8.00 | > 8.00 | –
9 | COc1ccc(C(C)N(C)c2nc(OC[C@@]34CCCN3C[C@H](F)C4)nc(N3CC4(C3)SCc3sc(N)c(C#N)c34)n2)c(N)n1 (stereo partly drawn) [Compound 233, 2′-amino-1-(4-((1-(2-amino-6-methoxypyridin-3-yl)ethyl)(methyl)amino)-6-(((2R,7aS)-2-fluorotetrahydro-1H-pyrrolizin-7a(5H)-yl)methoxy)-1,3,5-triazin-2-yl)-6′H-spiro[azetidine-3,4′-thieno[3,4-b]thiophene]-3′-carbonitrile] | 6.00 to 7.00 | 4.70 to 6.00 | –
10 | N#Cc1c(N)sc2c1C1(CN(c3nc(OC[C@@]45CCCN4C[C@H](F)C5)nc(N4C5CCC4COC5)n3)C1)SC2 (racemic) [Compound 274, 2-amino-1′-[4-(3-oxa-8-azabicyclo[3.2.1]octan-8-yl)-6-[[rac-(2R,8S)-2-fluoro-1,2,3,5,6,7-hexahydropyrrolizin-8-yl]methoxy]-1,3,5-triazin-2-yl]spiro[6H-thieno[3,4-b]thiophene-4,3′-azetidine]-3-carbonitrile] | 7.00 to 8.00 | 6.00 to 7.00 | –
11 | N#Cc1c(N)sc2c1C1(CC2)CN(c2nc(OC[C@@]34CCCN3C[C@H](F)C4)nc(O[C@@H]3COC[C@H]3O)n2)C1 (racemic) [Compound 80, 2-amino-1′-[4-[[(2R,8S)-2-fluoro-1,2,3,5,6,7-hexahydropyrrolizin-8-yl]methoxy]-6-[rac-(3R,4R)-4-hydroxytetrahydrofuran-3-yl]oxy-1,3,5-triazin-2-yl]spiro[5,6-dihydrocyclopenta[b]thiophene-4,3′-azetidine]-3-carbonitrile; 2,2,2-trifluoroacetic acid] | 4.70 to 6.00 | – | –
12 | N#Cc1c(N)sc2c1C1(CN(c3nc(OC[C@@]45CCCN4C[C@H](F)C5)nc(N4CCC5(CCN5C(=O)n5cncn5)C4)n3)C1)SC2 (stereo partly drawn) [Compound 248, 2-amino-1′-[4-[[(2R,8S)-2-fluoro-1,2,3,5,6,7-hexahydropyrrolizin-8-yl]methoxy]-6-[1-(1,2,4-triazole-1-carbonyl)-1,7-diazaspiro[3.4]octan-7-yl]-1,3,5-triazin-2-yl]spiro[6H-thieno[2,3-c]thiophene-4,3′-azetidine]-3-carbonitrile] | 4.70 to 6.00 | – | –
13 | N#Cc1c(N)sc2c1C1(CN(c3nc(OC[C@@]45CCCN4C[C@H](F)C5)nc(N4[C@H]5CC[C@@H]4[C@H](C#N)C5)n3)C1)SC2 (racemic) [Compound 279, 2-amino-1′-[4-[(1RS,2RS,4SR)-2-cyano-7-azabicyclo[2.2.1]heptan-7-yl]-6-[[(2R,8S)-2-fluoro-1,2,3,5,6,7-hexahydropyrrolizin-8-yl]methoxy]-1,3,5-triazin-2-yl]spiro[6H-thieno[3,4-b]thiophene-4,3′-azetidine]-3-carbonitrile] | – | 6.00 to 7.00 | –
14 | C[C@@]1(O)CCCN(c2nc(OC[C@@]34CCCN3[C@H](COc3cc(C(F)(F)F)ncn3)CC4)nc(N3CC4(C3)SCc3sc(N)c(C#N)c34)n2)C1 (racemic) [Compound 253, 2-amino-1′-[4-[(3R)-3-hydroxy-3-methyl-1-piperidyl]-6-[[(3SR,8SR)-3-[[6-(trifluoromethyl)pyrimidin-4-yl]oxymethyl]-1,2,3,5,6,7-hexahydropyrrolizin-8-yl]methoxy]-1,3,5-triazin-2-yl]spiro[6H-thieno[3,4-b]thiophene-4,3′-azetidine]-3-carbonitrile] | > 8.00 | – | –
15 | N#Cc1c(N)sc2c1C1(CN(c3nc(OC[C@@]45CCCN4C[C@H](F)C5)nc(N4[C@H]5CC[C@@H]4C(=O)C5)n3)C1)SC2 [Compound 280, 2-amino-1′-[4-[[(2R,8S)-2-fluoro-1,2,3,5,6,7-hexahydropyrrolizin-8-yl]methoxy]-6-(2-oxo-7-azabicyclo[2.2.1]heptan-7-yl)-1,3,5-triazin-2-yl]spiro[6H-thieno[3,4-b]thiophene-4,3′-azetidine]-3-carbonitrile] | – | 7.00 to 8.00 | –
16 | CC1(O)CCCN(c2nc(OCC34CCCN3C(COc3cc(C(F)(F)F)ncn3)CC4)nc(N3CC4(C3)SCc3sc(N)c(C#N)c34)n2)C1 (single isomer, unassigned) [Compound 256B] | – | > 8.00 | –
